Source: patent US9943490B2, “Composite flash-precipitated nanoparticles” (The Trustees of Princeton University, priority 2008, dated 2018)
Values after ≈ are worked out from the molar mass of the structure shown.

Assay: physchem
Conditions: aqueous with cosolvent or surfactant or cyclodextrin

solubility: ~50 µg/mL (≈ 93.1 µM)
Structure (SMILES): CC1=C(/C=C/C(C)=C/C=C/C(C)=C/C=C/C=C(C)/C=C/C=C(C)/C=C/C2=C(C)CCCC2(C)C)C(C)(C)CCC1 [β-carotene]
